Data: article PMC4631641 (The Journal of nutritional biochemistry, 2015)

Target: T1, holocarboxylase synthetase (HLCS) (Homo sapiens, UniProt P50747)
T1 sequence (P50747 1-726): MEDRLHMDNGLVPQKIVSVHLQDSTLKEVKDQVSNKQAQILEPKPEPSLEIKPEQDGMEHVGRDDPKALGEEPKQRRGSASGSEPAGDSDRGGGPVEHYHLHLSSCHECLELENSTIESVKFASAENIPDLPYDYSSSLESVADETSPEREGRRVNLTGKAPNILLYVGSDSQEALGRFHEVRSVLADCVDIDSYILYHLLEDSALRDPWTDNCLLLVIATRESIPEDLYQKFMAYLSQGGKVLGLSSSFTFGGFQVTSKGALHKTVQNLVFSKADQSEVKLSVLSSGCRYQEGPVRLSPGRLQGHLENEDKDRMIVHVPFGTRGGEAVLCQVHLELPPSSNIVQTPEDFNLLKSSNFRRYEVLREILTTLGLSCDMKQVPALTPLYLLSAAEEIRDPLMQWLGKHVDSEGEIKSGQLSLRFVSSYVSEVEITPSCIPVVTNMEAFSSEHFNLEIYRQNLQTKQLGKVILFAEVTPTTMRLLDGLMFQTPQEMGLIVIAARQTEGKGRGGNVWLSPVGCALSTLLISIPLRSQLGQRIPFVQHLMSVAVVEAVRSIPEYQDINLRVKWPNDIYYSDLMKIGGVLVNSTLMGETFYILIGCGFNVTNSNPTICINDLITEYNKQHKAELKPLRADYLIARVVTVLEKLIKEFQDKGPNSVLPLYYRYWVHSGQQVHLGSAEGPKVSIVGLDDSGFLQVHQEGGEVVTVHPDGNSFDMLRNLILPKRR
Assay: gel-based p67 biotinylation assay with purified rHLCS, dose-response
Assay type: biochemical

Row | Compound | IC50
1 | Oc1cc(O)cc(/C=C/c2ccc(O)c(O)c2)c1 [Piceatannol] | 0.28 µM
2 | OC[C@H]1O[C@@H](Oc2cc(O)cc(/C=C/c3ccc(O)cc3)c2)[C@H](O)[C@@H](O)[C@@H]1O [Piceid] | 21.3 ± 0.014 µM
3 | Oc1ccc(/C=C/c2cc(O)cc(O)c2)cc1 [Resveratrol] | 3.7 ± 0.0085 µM
